The record followed here is ChEMBL document CHEMBL5053516, “Cinchona Alkaloid-Inspired Urea-Containing Autophagy Inhibitor Shows Single-Agent Anticancer Efficacy” (J Med Chem, 2021).

Assay [1] deals with HepG2. The assay is described as follows: Cytotoxicity against human HepG2 cells assessed as cell viability by MTT assay. In kind it is functional, cell-based. For orientation: Formazan colour is commonly taken as a measure of viable cells.
Assay [2] can be described thus: Cytotoxicity against mouse HCA1 cells assessed as cell viability by MTT assay. It counts as functional, cell-based.
Assay [3] can be described thus: Cytotoxicity against mouse FL83B cells assessed as cell viability by MTT assay. It counts as cell-based.
Assay [4] deals with Mahlavu. In words: Cytotoxicity against human Mahlavu cells assessed as cell viability by MTT assay. It counts as functional, cell-based.
Assay [5] deals with Hep 3B2. The assay is described as follows: Cytotoxicity against human Hep3B cells assessed as cell viability by MTT assay. In kind it is functional, cell-based.
Assay [6] is described as follows: Cytotoxicity against human JHH7 cells assessed as cell viability by MTT assay. It counts as functional, cell-based.
The test system of assay [7] is HCA1. In words: Effect on LC3-I expression in mouse HCA1 cells at 0.5 uM by Western blot analysis. It counts as functional, cell-based. For orientation: Immunoblotting shows a protein as a band on a membrane.
Assay [8] relates to Mahlavu. The assay is described as follows: Inhibition of autophagy in human Mahlavu cells assessed as increase in LC3-II measured after 2 to 6 hrs by Western blot analysis. It counts as functional, cell-based. Particulars: time 2-6 hrs.
Assay [9] concerns Hep 3B2. The assay is described as follows: Inhibition of autophagy in human Hep3B cells assessed as increase in p62 expression measured after 2 to 6 hrs by Western blot analysis. Conditions: time 2-6 hrs. It counts as functional, cell-based.
Assay [10] deals with HCA1. The assay is described as follows: Inhibition of autophagy in mouse HCA1 cells assessed as increase in LC3-II measured after 2 to 6 hrs by Western blot analysis. It counts as functional, cell-based. Particulars: time 2-6 hrs.
In assay [11] the test system is Hep 3B2. In words: Inhibition of autophagy in human Hep3B cells assessed as increase in p62 expression measured at 0.1 to 0.5 uM by Western blot analysis. In kind it is functional, cell-based. Conditions: dose 0.1-0.5 µM, time 2-6 hrs, TDE = time-dependent effect.
Assay [12] has as its system Hep 3B2. In words: Inhibition of autophagy in human Hep3B cells assessed as increase in LC3-II measured at 0.1 to 0.5 uM by Western blot analysis. It counts as functional, cell-based. Particulars: dose 0.1-0.5 µM, time 2-6 hrs, TDE = time-dependent effect.
Assay [13] concerns Mahlavu. In words: Inhibition of autophagy in human Mahlavu cells assessed as increase in LC3-II measured at 0.1 to 0.5 uM by Western blot analysis. Conditions: dose 0.1-0.5 µM, time 2-6 hrs, TDE = time-dependent effect. It counts as functional, cell-based.
Assay [14] deals with Mahlavu. The assay is described as follows: Induction of apoptosis in human Mahlavu cells after 16 hrs using annexin V/PI staining assay. In kind it is functional, cell-based.
Assay [15] deals with Mahlavu. In words: Reduction in p53 expression in human Mahlavu cells by Western blot analysis. In kind it is functional, cell-based.
Assay [16] relates to HCA1. In words: Downregulation of Akt expression in mouse HCA1 cells by Western blot analysis. In kind it is functional, cell-based.
Assay [17] relates to HCA1. In words: Inhibition of autophagosome-lysosome fusion in mouse HCA1 cells assessed as number of LC3 puncta at 1 uM for 2 hrs by immunofluorescence assay. In kind it is functional, cell-based.
Assay [18] concerns Hep 3B2. The assay is described as follows: Effect on LC3-I expression in human Hep3B cells at 0.5 uM by Western blot analysis. It counts as functional, cell-based.
For assay [19], the target named is Serine/threonine-protein kinase AKT (Homo sapiens) (UniProt P31751+Q9Y243+P31749). The assay is described as follows: Inhibition of Akt phosphorylation in human Hep3B cells by Western blot analysis. It counts as cell-based.
Assay [20] has as its system Mahlavu. The assay is described as follows: Inhibition of autophagy in human Mahlavu cells assessed as increase in p62 expression measured at 0.1 to 0.5 uM by Western blot analysis. It counts as functional, cell-based. Particulars: dose 0.1-0.5 µM, time 2-6 hrs, TDE = time-dependent effect.
Assay [21] deals with HCA1. The assay is described as follows: Induction of apoptosis in mouse HCA1 cells after 16 hrs using annexin V/PI staining assay. It counts as functional, cell-based.
The subject of assay [22] is Mahlavu. In words: Reduction in Bcl-xL expression in human Mahlavu cells by Western blot analysis. It counts as functional, cell-based.
Assay [23] deals with HCA1. The assay is described as follows: Reduction in Bcl-xL expression in mouse HCA1 cells by Western blot analysis. It counts as functional, cell-based.
The subject of assay [24] is Mahlavu. The assay is described as follows: Inhibition of autophagosome-lysosome fusion in human Mahlavu cells assessed as number of LC3 puncta at 1 uM for 2 hrs by immunofluorescence assay. It counts as functional, cell-based.
In assay [25] the test system is HCA1. The assay is described as follows: Inhibition of autophagy in mouse HCA1 cells assessed as increase in LC3-II measured at 0.1 to 0.5 uM by Western blot analysis. It counts as functional, cell-based. Particulars: dose 0.1-0.5 µM, time 2-6 hrs, TDE = time-dependent effect.
The test system of assay [26] is Mahlavu. In words: Inhibition of autophagy in human Mahlavu cells assessed as increase in p62 expression measured after 2 to 6 hrs by Western blot analysis. It counts as functional, cell-based. Conditions: time 2-6 hrs.
Assay [27] concerns Mahlavu. In words: Induction of apoptosis in human Mahlavu cells assessed as increase in cleaved caspase 3 measured after 2 hrs by Western blot analysis. In kind it is functional, cell-based.
In assay [28] the test system is Mahlavu. The assay is described as follows: Effect on LC3-I expression in human Mahlavu cells at 0.5 uM by Western blot analysis. In kind it is functional, cell-based.
Assay [29] relates to HCA1. The assay is described as follows: Inhibition of autophagy in mouse HCA1 cells assessed as increase in p62 expression measured at 0.1 to 0.5 uM by Western blot analysis. Particulars: dose 0.1-0.5 µM, time 2-6 hrs, TDE = time-dependent effect. In kind it is functional, cell-based.
The subject of assay [30] is Mahlavu. In words: Downregulation of Akt expression in human Mahlavu cells by Western blot analysis. In kind it is functional, cell-based.
The subject of assay [31] is HCA1. The assay is described as follows: Induction of apoptosis in mouse HCA1 cells assessed as increase in cleaved caspase 3 measured after 2 hrs by Western blot analysis. In kind it is functional, cell-based.
Assay [32] relates to Hep 3B2. The assay is described as follows: Inhibition of autophagy in human Hep3B cells assessed as increase in LC3-II measured after 2 to 6 hrs by Western blot analysis. It counts as functional, cell-based. Conditions: time 2-6 hrs.
The test system of assay [33] is HCA1. In words: Inhibition of autophagy in mouse HCA1 cells assessed as increase in p62 expression measured after 2 to 6 hrs by Western blot analysis. In kind it is functional, cell-based. Conditions: time 2-6 hrs.

Activity calls are given as the source filed them. The calls are words filed in the database; no cut-off is given here.

Sequence of Serine/threonine-protein kinase AKT (Homo sapiens) (P31749 whole entry, looked up): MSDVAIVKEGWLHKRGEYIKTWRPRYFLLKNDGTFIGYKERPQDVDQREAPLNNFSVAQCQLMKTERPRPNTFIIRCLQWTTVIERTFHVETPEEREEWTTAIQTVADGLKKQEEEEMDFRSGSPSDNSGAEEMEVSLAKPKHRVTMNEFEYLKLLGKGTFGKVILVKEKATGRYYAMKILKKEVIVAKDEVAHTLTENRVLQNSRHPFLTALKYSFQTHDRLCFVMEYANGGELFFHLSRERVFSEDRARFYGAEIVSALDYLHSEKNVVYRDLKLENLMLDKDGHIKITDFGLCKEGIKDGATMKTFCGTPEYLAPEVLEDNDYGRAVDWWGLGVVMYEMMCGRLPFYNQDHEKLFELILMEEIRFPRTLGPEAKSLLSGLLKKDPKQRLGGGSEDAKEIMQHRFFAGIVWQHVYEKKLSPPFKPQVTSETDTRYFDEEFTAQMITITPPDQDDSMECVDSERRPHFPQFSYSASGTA
Sequence of Serine/threonine-protein kinase AKT (Homo sapiens) (P31751 whole entry, looked up): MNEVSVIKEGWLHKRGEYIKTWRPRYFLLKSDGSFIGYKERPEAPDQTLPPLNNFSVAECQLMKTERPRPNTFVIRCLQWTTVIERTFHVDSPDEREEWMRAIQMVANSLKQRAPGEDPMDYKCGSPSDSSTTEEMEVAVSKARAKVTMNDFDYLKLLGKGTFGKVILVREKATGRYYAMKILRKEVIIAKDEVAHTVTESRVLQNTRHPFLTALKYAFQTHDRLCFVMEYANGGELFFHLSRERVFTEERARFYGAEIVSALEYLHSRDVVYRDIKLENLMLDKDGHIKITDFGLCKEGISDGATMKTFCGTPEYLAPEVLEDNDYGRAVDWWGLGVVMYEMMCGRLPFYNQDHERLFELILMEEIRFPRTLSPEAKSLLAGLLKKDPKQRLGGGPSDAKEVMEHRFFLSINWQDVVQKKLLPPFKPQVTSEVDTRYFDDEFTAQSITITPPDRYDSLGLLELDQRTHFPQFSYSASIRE
Sequence of Serine/threonine-protein kinase AKT (Homo sapiens) (Q9Y243 whole entry, looked up): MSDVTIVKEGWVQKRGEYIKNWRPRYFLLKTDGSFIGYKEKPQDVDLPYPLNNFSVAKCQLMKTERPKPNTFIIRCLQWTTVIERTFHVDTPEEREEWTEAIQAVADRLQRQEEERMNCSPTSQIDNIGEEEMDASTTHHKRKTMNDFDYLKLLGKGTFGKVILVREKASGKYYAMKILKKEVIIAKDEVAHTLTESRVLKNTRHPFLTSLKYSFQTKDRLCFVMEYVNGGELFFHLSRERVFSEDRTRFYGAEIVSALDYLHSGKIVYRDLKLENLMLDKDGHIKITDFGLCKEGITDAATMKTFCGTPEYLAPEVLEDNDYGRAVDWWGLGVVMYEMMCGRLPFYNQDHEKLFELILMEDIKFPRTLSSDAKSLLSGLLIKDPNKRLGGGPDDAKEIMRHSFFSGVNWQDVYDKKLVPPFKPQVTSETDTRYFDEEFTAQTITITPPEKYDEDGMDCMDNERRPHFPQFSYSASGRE

Turning to `C=CC1CN2CCC1C[C@H]2[C@@H](NC(=O)Nc1cccc(C(F)(F)F)c1)c1ccnc2ccc(OC)cc12` (some centres undefined), the IC50 (commonly the concentration needed to halve the response being measured) was over 10 µM in [1]; 1.48 µM in assay [2]; over 10 µM in [3]; 6.1 µM in assay [4]; 1.62 µM in assay [5]; 6.42 µM in [6].
As to `C=CC1CN2CCC1CC2[C@@H](NC(=O)Nc1cc(C(F)(F)F)cc(C(F)(F)F)c1)c1ccnc2ccc(OC)cc12` (some centres undefined), the result in assay [7], in [15], in assay [16], in assay [17], in [22] and in assay [23] was Active. The outcome in [24], in assay [27], in [30] and in assay [31] was Active. Moreover, the Activity entry was “Dose-dependent effect” in [8]; “Dose-dependent effect” in assay [9]; “Dose-dependent effect” in [10]; “Tde” in assay [11]; “Tde” in assay [12]; “Tde” in [13]. The Activity result was “Dose-dependent effect” in assay [14]; “Tde” in assay [20]; “Dose-dependent effect” in [21]; “Tde” in assay [25]; “Dose-dependent effect” in assay [26]; “Tde” in [29]. Moreover, the Activity result in assay [32] and in [33] was “Dose-dependent effect” in each case. For the same compound, the IC50 in assay [1] stood at 0.69 µM; in assay [2], 0.23 µM; in [3], 0.72 µM; in [4] it was 0.13 µM; in assay [5] it was 0.27 µM; in assay [6] it was 0.27 µM. The outcome in [18] and in [28] was inactive. Moreover, in assay [19], the inhibition result is “Active”.
With `CCN(CC)CCCC(C)Nc1ccnc2cc(Cl)ccc12` (centres undefined) [CHLOROQUINE], the IC50 in assay [1], in assay [2], in assay [3], in assay [4], in [5] and in [6] was over 10 µM in each case.
On to `C=CC1CN2CCC1CC2[C@@H](NC(=S)Nc1cc(C(F)(F)F)cc(C(F)(F)F)c1)c1ccnc2ccc(OC)cc12` (some centres undefined), for which the IC50 turned out to be 0.77 µM in assay [1]; 0.37 µM in assay [2]; 0.78 µM in [3]; 0.28 µM in [4]; 0.29 µM in [5]; 0.34 µM in assay [6].
Turning to `C=CC1CN2CCC1C[C@H]2[C@@H](NC(=O)Nc1ccc(OC)cc1)c1ccnc2ccc(OC)cc12` (some centres undefined), the IC50 in assay [1] is 9.55 µM; in [2], 5.85 µM; in assay [3], over 10 µM; in assay [4], 6.29 µM; in assay [5] it was 9.92 µM; in [6], over 10 µM.
Take `C=CC1CN2CCC1CC2[C@@H](NC(=O)Nc1ccc(F)cc1)c1ccnc2ccc(OC)cc12` (some centres undefined): the IC50 in assay [1] was 5.88 µM; in [2] it was 2.81 µM; in assay [3], 3.9 µM; in assay [4], 3.65 µM; in assay [5], 2 µM; in assay [6], over 10 µM.
With `C=CC1CN2CCC1CC2[C@@H](NC(=O)Nc1ccc(C(F)(F)F)cc1)c1ccnc2ccc(OC)cc12` (some centres undefined), the IC50 is 1.08 µM in [1]; 0.62 µM in [2]; 0.79 µM in assay [3]; 0.6 µM in assay [4]; 0.59 µM in assay [5]; 0.42 µM in assay [6].
With `C=CC1CN2CCC1C[C@H]2[C@@H](NC(=O)Nc1cc(OC)cc(OC)c1)c1ccnc2ccc(OC)cc12` (some centres undefined), the IC50 worked out at 5.09 µM in [1]; 2.26 µM in [2]; 8.46 µM in assay [3]; 3.81 µM in [4]; 3.53 µM in assay [5]; 5.87 µM in assay [6].
For `C=CC1CN2CCC1C[C@H]2[C@@H](NC(=O)Nc1ccccc1C(F)(F)F)c1ccnc2ccc(OC)cc12` (some centres undefined), the IC50 in [1] was over 10 µM; in assay [2], 5.72 µM; in assay [3] it was over 10 µM; in assay [4], 6.51 µM; in assay [5] it was 3.05 µM; in assay [6] it was over 10 µM.
With `C=CC1CN2CCC1CC2[C@@H](NC(=O)Nc1ccccc1)c1ccnc2ccc(OC)cc12` (some centres undefined), the IC50 is 8.67 µM in assay [1]; over 10 µM in [2]; over 10 µM in assay [3]; 4.02 µM in [4]; over 10 µM in assay [5]; over 10 µM in [6].
As for `C=CC1CN2CCC1CC2[C@H](NC(=O)Nc1cc(C(F)(F)F)cc(C(F)(F)F)c1)c1ccnc2ccc(OC)cc12` (some centres undefined), the IC50 in assay [1] turned out to be 0.69 µM; in assay [2], 0.42 µM; in assay [3] it was 0.92 µM; in assay [4], 0.62 µM; in [5], 0.38 µM; in assay [6], 0.6 µM.
Turning to `C=CC1CN2CCC1C[C@H]2[C@@H](NC(=O)Nc1cc(C)cc(C)c1)c1ccnc2ccc(OC)cc12` (some centres undefined), the IC50 was 5.16 µM in assay [1]; over 10 µM in assay [2]; over 10 µM in [3]; over 10 µM in assay [4]; 5.12 µM in assay [5]; 7.31 µM in assay [6].
